The assay deals with human PD-L1 (Homo sapiens (Human), UniProt Q9NZQ7). Briefly: Enzyme-Linked Immunosorbent Assay (ELISA), PD-1/PD-L1 binding. Conditions: human PD-1/PD-L1 ELISA, plates coated with human PD-L1. In a few lines:
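Competitive ELISA: human PD-1 […] (0.31 μg/mL) and serially diluted compounds (1:5) incubated 1 h at 37° C on wells coated with […] human PD-L1. Signal via streptavidin-HRP/TMB, stopped with 2 N H2SO4, measured as A450.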

Among the data in patent US11266643B2, “Triaryl compounds for treatment of PD-L1 diseases” (CHEMOCENTRYX, INC., priority 2019, dated 2022) are IC50 values, retold here.

Chain of human PD-L1 (Q9NZQ7 19-239): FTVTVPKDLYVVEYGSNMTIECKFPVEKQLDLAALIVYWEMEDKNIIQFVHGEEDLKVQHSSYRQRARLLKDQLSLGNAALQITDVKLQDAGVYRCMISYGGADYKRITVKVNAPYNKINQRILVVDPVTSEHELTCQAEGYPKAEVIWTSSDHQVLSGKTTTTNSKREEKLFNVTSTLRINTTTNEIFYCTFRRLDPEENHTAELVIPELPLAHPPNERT

Regarding `COc1cc(-c2cccc(-c3cccc(NC(=O)c4cccn(C)c4=O)c3C)c2C)cc(F)c1CNC[C@H]1CCC(=O)N1` [Example 1.145], the IC50 was below 10 nM.
